Results on 9 compounds are retold here after ChEMBL document CHEMBL1255493, “In vitro activity of telavancin against a contemporary worldwide collection of Staphylococcus aureus isolates” (2010).

Common to all, as to format: functional
For test [1], the system named is Staphylococcus aureus. In words: Antibacterial activity against methicillin-resistant Staphylococcus aureus clinical isolates assessed as resistant isolates by CLSI method.
Test [2] deals with Staphylococcus aureus. In words: Antibacterial activity against methicillin-susceptible Staphylococcus aureus clinical isolates assessed as susceptible isolates by CLSI method.
For test [3], the system named is Staphylococcus aureus. In words: Antibacterial activity against methicillin-susceptible Staphylococcus aureus clinical isolates assessed as resistant isolates by CLSI method.
Test [4] has as its system Staphylococcus aureus. In words: Antibacterial activity against methicillin-susceptible Staphylococcus aureus clinical isolates assessed as susceptible isolates by EUCAST method.
For test [5], the system named is Staphylococcus aureus. In words: Antibacterial activity against methicillin-resistant Staphylococcus aureus clinical isolates assessed as susceptibility breakpoint.
Test [6] has as its system Staphylococcus aureus. In words: Antibacterial activity against methicillin-susceptible Staphylococcus aureus clinical isolates assessed as resistant isolates by EUCAST method.
Test [7] relates to Staphylococcus aureus. In words: Antibacterial activity against methicillin-resistant Staphylococcus aureus clinical isolates by CLSi method.
Test [8] deals with Staphylococcus aureus. In words: Antibacterial activity against methicillin-resistant Staphylococcus aureus clinical isolates assessed as resistant isolates by EUCAST method.
The subject of test [9] is Staphylococcus aureus. In words: Antibacterial activity against methicillin-susceptible Staphylococcus aureus clinical isolates by CLSi method.
Test [10] relates to Staphylococcus aureus. In words: Antibacterial activity against methicillin-resistant Staphylococcus aureus clinical isolates assessed as susceptible isolates by CLSI method.
In test [11] the test system is Staphylococcus aureus. In words: Antibacterial activity against methicillin-resistant Staphylococcus aureus clinical isolates assessed as susceptible isolates by EUCAST method.

Converted amounts (≈) assume the structure as drawn. The source made the active and inactive calls. The calls are words filed in the database; no cut-off is given here. Where only a bound is given, the exact number is not on record here.

One may read the MIC50 as the lowest concentration that inhibits either 50% of growth or 50% of the strains tested, depending on the study. Lower therefore signals greater potency. The MIC90 is an inhibitory concentration at the 90% level, which refers to growth in some studies and to a panel of isolates in others. Read a high MIC90 as weaker potency. Turning to `CCCCCCCCCCNCCN[C@@]1(C)C[C@H](O[C@H]2[C@H](Oc3c4cc5cc3Oc3ccc(cc3Cl)[C@@H](O)[C@@H](NC(=O)[C@@H](CC(C)C)NC)C(=O)N[C@@H](CC(N)=O)C(=O)N[C@H]5C(=O)N[C@H]3C(=O)N[C@H](C(=O)N[C@H](C(=O)O)c5cc(O)c(CNCP(=O)(O)O)c(O)c5-c5cc3ccc5O)[C@H](O)c3ccc(c(Cl)c3)O4)O[C@H](CO)[C@@H](O)[C@@H]2O)O[C@@H](C)[C@H]1O` [TELAVANCIN], the outcome in test [1], in test [3], in test [6] and in test [8] was inactive. In addition, the figures for the Activity in test [2], in [4] and in test [5] were 100%, 100% and “<=1 ug ml-1”, respectively. Further, the MIC50 in test [7] and in test [9] was 0.12 µg/mL (≈ 0.0684 µM) in each case. The MIC90 in test [7] and in test [9] was 0.25 µg/mL (≈ 0.142 µM) throughout.

As for `CN[C@H](CC(C)C)C(=O)N[C@H]1C(=O)N[C@@H](CC(N)=O)C(=O)N[C@H]2C(=O)N[C@H]3C(=O)N[C@H](C(=O)N[C@H](C(=O)O)c4cc(O)cc(O)c4-c4cc3ccc4O)[C@H](O)c3ccc(c(Cl)c3)Oc3cc2cc(c3O[C@@H]2O[C@H](CO)[C@@H](O)[C@H](O)[C@H]2O[C@H]2C[C@](C)(N)[C@H](O)[C@H](C)O2)Oc2ccc(cc2Cl)[C@H]1O` [VANCOMYCIN], the Activity in test [1] worked out at 0%; in test [2] it was 100%; in test [3], 0%; in [10], 99.9%; in test [11], 99.9%; in [4], 100%. The Activity was 0% in test [6] and 0.1% in [8]. The MIC50 in test [7] and in [9] was 1 µg/mL (≈ 0.69 µM) in each case. For the same compound, the MIC90 in [7] and in test [9] was 1 µg/mL (≈ 0.69 µM) throughout.

GENTAMICIN: the Activity in test [1] worked out at 21.1%; in [2], 96.6%; in test [3] it was 3.1%; in test [10] it was 77.9%; in [11] it was 77.1%; in [4] it was 96.4%. The Activity is 3.6% in [6] and 22.9% in test [8]. Besides, the MIC50 in [7] and in test [9] was < 1 µg/mL each time. Further, the figures for the MIC90 in test [7] and in test [9] were > 8 µg/mL and < 1 µg/mL, respectively.

On to `CN(C)[C@@H]1C(O)=C(C(N)=O)C(=O)[C@@]2(O)C(O)=C3C(=O)c4c(O)cccc4[C@@](C)(O)[C@H]3C[C@@H]12` [TETRACYCLINE], for which the Activity is listed as 19.1% in [1]; 94.6% in test [2]; 5% in test [3]; 80.7% in test [10]; 80.1% in [11]; 94.2% in [4]. For the same compound, the values for the Activity in [6] and in test [8] were 5.8% and 19.9%, respectively. Also, the MIC50 in test [9] is ≤ 1 µg/mL. The MIC90 in [9] was ≤ 1 µg/mL.

For the compound `CC[C@H]1OC(=O)[C@H](C)[C@@H](O[C@H]2C[C@@](C)(OC)[C@@H](O)[C@H](C)O2)[C@H](C)[C@@H](O[C@@H]2O[C@H](C)C[C@H](N(C)C)[C@H]2O)[C@](C)(O)C[C@@H](C)C(=O)[C@H](C)[C@@H](O)[C@]1(C)O` [ERYTHROMYCIN], the Activity was determined as 85.6% in test [1]; 74.3% in [2]; 25.2% in test [3]; 13.9% in [10]; 14.2% in test [11]; 74.5% in [4]. For the same compound, the Activity is given as 25.2% in [6] and 85.6% in test [8]. Further, the figures for the MIC50 in test [7] and in test [9] were > 4 µg/mL and ≤ 0.25 µg/mL, respectively. Besides, the MIC90 in test [9] was > 4 µg/mL.

Consider `CCC[C@@H]1C[C@@H](C(=O)N[C@@H]([C@H]2O[C@H](SC)[C@H](O)[C@@H](O)[C@H]2O)[C@H](C)Cl)N(C)C1` [CLINDAMYCIN], for which the Activity was 45% in test [1]; 95% in test [2]; 4.9% in test [3]; 54.7% in test [10]; 54.3% in test [11]; 94.6% in test [4]. The results for the Activity in test [6] and in test [8] were 5% and 45.3%, respectively. In addition, the MIC90 in [7] is > 2 µg/mL; in test [9] it was ≤ 0.25 µg/mL. Besides, in [9], the MIC50 was ≤ 0.25 µg/mL.

Take `C[C@H]1COc2c(N3CCN(C)CC3)c(F)cc3c(=O)c(C(=O)O)cn1c23.C[C@H]1COc2c(N3CCN(C)CC3)c(F)cc3c(=O)c(C(=O)O)cn1c23.O` [LEVOFLOXACIN]: the Activity is listed as 77.9% in test [1]; 92.9% in [2]; 6.8% in test [3]; 21.6% in test [10]; 21.6% in test [11]; 92.9% in [4]. Moreover, the Activity in test [6] worked out at 6.8%; in test [8], 77.9%. The values for the MIC50 in test [7] and in test [9] were > 4 µg/mL and ≤ 0.5 µg/mL, respectively. Moreover, the MIC90 was > 4 µg/mL in test [7] and ≤ 0.5 µg/mL in test [9].

For `CCCCCCCCCC(=O)N[C@@H](Cc1c[nH]c2ccccc12)C(=O)N[C@H](CC(N)=O)C(=O)N[C@@H](CC(=O)O)C(=O)N[C@@H]1C(=O)NCC(=O)N[C@@H](CCCN)C(=O)N[C@@H](CC(=O)O)C(=O)N[C@H](C)C(=O)N[C@@H](CC(=O)O)C(=O)NCC(=O)N[C@H](CO)C(=O)N[C@@H]([C@H](C)CC(=O)O)C(=O)N[C@@H](CC(=O)c2ccccc2N)C(=O)O[C@@H]1C`, the result in test [1] and in [3] was inactive. Besides, the Activity in test [2] is given as 100%; in test [10] it was 99.9%; in test [11], 99.9%; in [4], 100%; in test [6], 0%; in test [8] it was 0.1%. Moreover, the MIC50 in test [7] and in test [9] was 0.25 µg/mL (≈ 0.154 µM) throughout. Further, the MIC90 in test [7] and in test [9] was 0.5 µg/mL (≈ 0.309 µM) each time.

Regarding `CC(=O)NC[C@H]1CN(c2ccc(N3CCOCC3)c(F)c2)C(=O)O1` [LINEZOLID], the result in test [1] and in test [3] was inactive. In addition, the Activity is on record as 100% in test [2], 100% in test [4], 0% in test [6] and <0.1% in test [8]. In addition, the MIC50 worked out at 1 µg/mL (≈ 2.96 µM) in test [7] and 2 µg/mL (≈ 5.93 µM) in test [9]. In addition, the MIC90 in [7] and in test [9] was 2 µg/mL (≈ 5.93 µM) in each case.
